Source: patent US8076338B2, “Kinase modulators and methods of use” (Exelixis, Inc., priority 2004, dated 2011)
Read-outs that look alike come from different tables or passages of the source.

Legend:
AktK = AktK (Homo sapiens, UniProt P31749); assay: Luciferase-coupled chemiluminescence kinase assay (ATP consumption); assay type: biochemical; conditions: read-out: AKT-1 IC50
Description: (§1) One measure of inhibition is Ki. […] The Ki for a compound is determined from the IC50 based on three assumptions. First, only one compound molecule binds to the enzyme and there is no cooperativity. […] Third, the enzymatic rate of the enzyme-inhibitor complex is zero. The rate data (i.e. compound concentration) are fitted to the equation: […]
(§2) Luciferase-Coupled Chemiluminescence Assay Protocol
(§3) Kinase activity is measured as the percent of ATP consumed following the kinase reaction using luciferase-luciferin-coupled chemiluminescence. Reactions were conducted in 384-well white, medium binding microtiter plates (Greiner). Kinase reactions were initiated by combining test compounds, ATP and kinase in a 20 uL volume. The reaction mixture was incubated at ambient temperature for 3 hrs. For p70S6K and/or AktK, 2.5-5 nM of the enzyme was pre-incubated with compound in 20 mM Tris pH 7.5, 10 mM MgCl2, 0.03% TX-100, and 1 mM DTT for 30 minutes at room temperature. Following the kinase reaction, a 20 μL aliquot of luciferase-luciferin mix was added and the chemiluminescence signal measured using a Victor^2 plate reader (Perkin Elmer). The luciferase-luciferin mix contained 50 mM HEPES, pH 7.8, 67 mM oxalic acid (pH 7.8), 5 (or 50) mM DTT, 0.4% Triton X-100, 0.25 mg/mL coenzyme A, 63 μM AMP, 28 μg/1 mL luciferin and 40,000 units/mL luciferase. Total ATP consumption was limited to 25-60% and the IC50 values correlate well with those determined by radiometric assays.

p70S6K = p70S6K (Homo sapiens, UniProt P23443); assay: as above; assay type: biochemical
p70S6K, sequence (P23443 whole entry): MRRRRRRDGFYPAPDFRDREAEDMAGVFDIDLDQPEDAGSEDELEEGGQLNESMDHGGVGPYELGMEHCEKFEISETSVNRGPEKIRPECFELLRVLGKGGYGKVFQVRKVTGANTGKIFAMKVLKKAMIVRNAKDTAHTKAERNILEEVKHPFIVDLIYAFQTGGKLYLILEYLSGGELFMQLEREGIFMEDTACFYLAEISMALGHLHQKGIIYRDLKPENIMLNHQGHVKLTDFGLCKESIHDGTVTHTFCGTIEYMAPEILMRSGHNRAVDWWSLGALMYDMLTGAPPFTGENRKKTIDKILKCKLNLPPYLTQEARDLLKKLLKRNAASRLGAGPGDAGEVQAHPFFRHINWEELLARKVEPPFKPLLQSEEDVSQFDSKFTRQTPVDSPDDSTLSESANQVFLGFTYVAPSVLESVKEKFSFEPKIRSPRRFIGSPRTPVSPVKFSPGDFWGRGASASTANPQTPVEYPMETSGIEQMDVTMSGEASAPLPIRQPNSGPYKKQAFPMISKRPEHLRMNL
Description: as §1, §2, §3

AktK, sequence (P31749 whole entry): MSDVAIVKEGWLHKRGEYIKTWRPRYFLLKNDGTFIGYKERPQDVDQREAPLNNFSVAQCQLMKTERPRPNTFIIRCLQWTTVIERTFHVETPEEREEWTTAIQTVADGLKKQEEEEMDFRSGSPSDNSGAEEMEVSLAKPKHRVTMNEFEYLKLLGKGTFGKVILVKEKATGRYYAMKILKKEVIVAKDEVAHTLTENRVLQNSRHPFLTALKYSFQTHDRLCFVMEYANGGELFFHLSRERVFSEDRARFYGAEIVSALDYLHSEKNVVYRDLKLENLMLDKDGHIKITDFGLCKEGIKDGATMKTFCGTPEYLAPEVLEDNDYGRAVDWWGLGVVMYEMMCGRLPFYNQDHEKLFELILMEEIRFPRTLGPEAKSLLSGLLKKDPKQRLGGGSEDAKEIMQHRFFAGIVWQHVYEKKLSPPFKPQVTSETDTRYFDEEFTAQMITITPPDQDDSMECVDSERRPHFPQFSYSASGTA

Compound | IC50 (AktK) [nM] | IC50 (p70S6K) [nM] | IC50 (AktK; Table 1, class symbols per key) [nM] | IC50 (p70S6K; Table 1, class symbols per key) [nM]
Clc1cccc(N2CCN(c3ncnc4[nH]nc(Br)c34)CC2)c1 [Entry 134, 3-bromo-4-[4-(3-chlorophenyl)piperazin-1-yl]-1H-pyrazolo[3,4-d]pyrimidine] | – | – | ≥ 10000 | < 100
CCc1n[nH]c2ncnc(N3CCN(c4cc(Cl)cc(OCC5CCN(C)CC5)c4C)CC3)c12 [Entry 31, 4-[4-(5-chloro-2-methyl-3-{[(1-methylpiperidin-4-yl)methyl]oxy}phenyl)piperazin-1-yl]-3-ethyl-1H-pyrazolo[3,4-d]pyrimidine] | – | – | 100 to 1000 | < 100
CCc1ccccc1N1CCN(c2ncnc3[nH]nc(Br)c23)CC1 [Entry 105, 3-bromo-4-[4-(2-ethylphenyl)piperazin-1-yl]-1H-pyrazolo[3,4-d]pyrimidine] | – | – | ≥ 10000 | 100 to 1000
Cc1c(OCCN2CCN(C)CC2)cc(Cl)cc1N1CCN(c2ncnc3[nH]nc(Br)c23)CC1 [Entry 72, 3-bromo-4-[4-(5-chloro-2-methyl-3-{[2-(4-methylpiperazin-1-yl)ethyl]oxy}phenyl)piperazin-1-yl]-1H-pyrazolo[3,4-d]pyrimidine] | – | – | 100 to 1000 | < 100
N#Cc1cccnc1N1CCN(c2ncnc3[nH]nc(Br)c23)CC1 [Entry 127, 2-[4-(3-bromo-1H-pyrazolo[3,4-d]pyrimidin-4-yl)piperazin-1-yl]pyridine-3-carbonitrile] | – | – | ≥ 10000 | 100 to 1000
Cc1c(NCCN2CCCC2)cc(C(=O)Nc2ccc(Cl)cc2)cc1N1CCN(c2ncnc3[nH]nc(Br)c23)CC1 [Entry 203, 3-[4-(3-bromo-1H-pyrazolo[3,4-d]pyrimidin-4-yl)piperazin-1-yl]-N-(4-chlorophenyl)-4-methyl-5-[(2-pyrrolidin-1-ylethyl)amino]benzamide] | – | – | < 100 | < 100
Brc1n[nH]c2ncnc(N3CCN(c4ncccn4)CC3)c12 [Entry 108, 3-bromo-4-(4-pyrimidin-2-ylpiperazin-1-yl)-1H-pyrazolo[3,4-d]pyrimidine] | – | – | ≥ 10000 | 100 to 1000
N′-{3-[4-(3-bromo-1H-pyrazolo[3,4-d]pyrimidin-4-yl)piperazin-1-yl]-2-methyl-5-[(2-methyl-propyl)oxy]phenyl}-N,N-diethylethane-1,2-diamine [Entry 185] | – | – | < 100 | < 100
CCc1n[nH]c2ncnc(N3CCN(c4cc(C(F)(F)F)ccc4Cl)CC3)c12 [Entry 171, 4-{4-[2-chloro-5-(trifluoromethyl)phenyl]piperazin-1-yl}-3-ethyl-1H-pyrazolo[3,4-d]pyrimidine] | – | – | 1000 to 10000 | < 100
CCN(CC)CCCOc1cc(Cl)cc(N2CCN(c3ncnc4[nH]nc(C(F)(F)F)c34)CC2)c1C [Entry 56, 3-[(5-chloro-2-methyl-3-{4-[3-(trifluoromethyl)-1H-pyrazolo[3,4-d]pyrimidin-4-yl]piperazin-1-yl}phenyl)oxy]-N,N-diethylpropan-1-amine] | – | – | 100 to 1000 | < 100
Cc1c(NCCN2CCCC2)cc(OC(C)C)cc1N1CCN(c2ncnc3[nH]nc(Br)c23)CC1 [Entry 220, 3-[4-(3-bromo-1H-pyrazolo[3,4-d]pyrimidin-4-yl)piperazin-1-yl]-2-methyl-5-[(1-methylethyl)oxy]-N-(2-pyrrolidin-1-ylethyl)aniline] | – | – | < 100 | < 100
Cc1c(NCCN2CCCC2)cc(OCC(C)(C)F)cc1N1CCN(c2ncnc3[nH]nc(Br)c23)CC1 [Entry 216, 3-[4-(3-bromo-1H-pyrazolo[3,4-d]pyrimidin-4-yl)piperazin-1-yl]-5-[(2-fluoro-2-methylpro-pyl)oxy]-2-methyl-N-(2-pyrrolidin-1-ylethyl)aniline] | – | – | < 100 | < 100
CCN(CC)CCCOc1nc(Cl)c(C)c(N2CCN(c3ncnc4[nH]nc(Br)c34)CC2)n1 [Entry 173, 3-({4-[4-(3-bromo-1H-pyrazolo[3,4-d]pyrimidin-4-yl)piperazin-1-yl]-6-chloro-5-methylpyrimidin-2-yl}oxy)-N,N-diethylpropan-1-amine] | – | – | 1000 to 10000 | 100 to 1000
Cc1ccc(N2CCN(c3ncnc4[nH]nc(Br)c34)CC2)cc1CCCN1CCCC1 [Entry 67, 3-bromo-4-{4-[4-methyl-3-(3-pyrrolidin-1-ylpropyl)phenyl]piperazin-1-yl}-1H-pyrazolo[3,4-d]pyrimidine] | – | – | 1000 to 10000 | 100 to 1000
Cc1c(CCCN2CCCCC2)cc(Cl)cc1N1CCN(c2ncnc3[nH]nc(Br)c23)CC1 [Entry 27, 3-bromo-4-{4-[5-chloro-2-methyl-3-(3-piperidin-1-ylpropyl)phenyl]piperazin-1-yl}-1H-pyrazolo[3,4-d]pyrimidine] | – | – | < 100 | < 100
Cc1c(NCCN2CCCC2)cc(OCC2CC2)cc1N1CCN(c2ncnc3[nH]nc(Br)c23)CC1 [Entry 205, 3-[4-(3-bromo-1H-pyrazolo[3,4-d]pyrimidin-4-yl)piperazin-1-yl]-5-[(cyclopropylmethyl)oxy]-2-methyl-N-(2-pyrrolidin-1-ylethyl)aniline] | – | – | < 100 | < 100

The next lines start with the values.

IC50 (AktK) [nM] | IC50 (p70S6K) [nM] | IC50 (AktK; Table 1, class symbols per key) [nM] | IC50 (p70S6K; Table 1, class symbols per key) [nM] | Compound
1000 to 10000 | 100 to 1000 | – | – | Cc1ccc(Cl)cc1N1CCN(c2ncnc3[nH]nc(-c4ccc5c(c4)OCO5)c23)CC1 [Entry 337, 3-(1,3-benzodioxol-5-yl)-4-[4-(5-chloro-2-methyl-phenyl)piperazin-1-yl]-1H-pyrazolo[3,4-d]pyrimidine]
1000 to 10000 | 100 to 1000 | – | – | Cc1ccc(Cl)cc1N1CCN(c2ncnc3[nH]nc(/C=C/C(=O)OC(C)(C)C)c23)CC1 [Entry 387, 1,1-dimethylethyl (2E)-3-{4-[4-(5-chloro-2-methylphenyl)piperazin-1-yl]-1H-pyrazolo[3,4-d]pyrimidin-3-yl}prop-2-enoate]
1000 to 10000 | < 100 | – | – | CCc1n[nH]c2ncnc(N3CCN(c4cc(Cl)cc(CO)c4OC)CC3)c12 [Entry 367, [5-chloro-3-[4-(3-ethyl-1H-pyrazolo[3,4-d]pyrimidin-4-yl)piperazin-1-yl]-2-(methyloxy)phenyl]methanol]
– | – | 100 to 1000 | < 100 | CCc1n[nH]c2ncnc(N3CCN(c4cc(OCC(F)(CF)CF)cc(Br)c4C)CC3)c12 [Entry 251, 4-[4-(3-bromo-5-{[2,3-difluoro-2-(fluorometh-yl)propyl]oxy}-2-methylphenyl)piperazin-1-yl]-3-ethyl-1H-pyrazolo[3,4-d]pyrimidine]
≥ 10000 | < 100 | – | – | FC(F)(F)c1cccc(N2CCN(c3ncnc4[nH]ncc34)CC2)c1 [Entry 316, 4-{4-[3-(trifluoromethyl)phenyl]piperazin-1-yl}-1H-pyrazolo[3,4-d]pyrimidine]
– | – | 100 to 1000 | < 100 | Cc1cc(F)c(-c2ccc(F)c(F)c2)cc1N1CCN(c2ncnc3[nH]nc(Br)c23)CC1 [Entry 266, 3-bromo-4-[4-(3′,4′,6-trifluoro-4-methylbiphenyl-3-yl)piperazin-1-yl]-1H-pyrazolo[3,4-d]pyrimidine]
100 to 1000 | < 100 | – | – | CCc1n[nH]c2ncnc(N3CCN(c4cc(Cl)cc(CCCN5CCCC5)c4C)CC3)c12 [Entry 403, 4-{4-[5-chloro-2-methyl-3-(3-pyrrolidin-1-ylpropyl)phenyl]piperazin-1-yl}-3-ethyl-1H-pyrazolo[3,4-d]pyrimidine]
– | – | 100 to 1000 | < 100 | CON(C)C(=O)c1cc(NCCN2CCCC2)c(C)c(N2CCN(c3ncnc4[nH]nc(Br)c34)CC2)c1 [Entry 249, 3-[4-(3-bromo-1H-pyrazolo[3,4-d]pyrimidin-4-yl)piperazin-1-yl]-N,4-dimethyl-N-(methyloxy)-5-[(2-pyrrolidin-1-ylethyl)amino]benzamide]
1000 to 10000 | 100 to 1000 | – | – | Cc1ccc(Cl)cc1N1CCN(c2ncnc3[nH]nc(-c4ccc(Oc5ccccc5)cc4)c23)CC1 [Entry 358, 4-[4-(5-chloro-2-methylphenyl)piperazin-1-yl]-3-[4-(phenyloxy)phenyl]-1H-pyrazolo[3,4-d]pyrimidine]
≥ 10000 | 1000 to 10000 | – | – | COc1ccc(N2CCN(c3ncnc4[nH]cnc34)CC2)cc1 [Entry 306, 6-{4-[4-(methyloxy)phenyl]piperazin-1-yl}-9H-purine]
1000 to 10000 | 100 to 1000 | – | – | CCc1n[nH]c2ncnc(N3CCN(c4cc(Cl)cc(C(=O)OC)c4OC)CC3)c12 [Entry 368, methyl 5-chloro-3-[4-(3-ethyl-1H-pyrazolo[3,4-d]pyrimidin-4-yl)piperazin-1-yl]-2-(methyloxy)benzoate]
– | – | < 100 | < 100 | Cc1ccc(-c2ccccc2OCCN2C(=O)CCC2=O)cc1N1CCN(c2ncnc3[nH]nc(Br)c23)CC1 [Entry 281, 1-[2-({3′-[4-(3-bromo-1H-pyrazolo[3,4-d]pyrimidin-4-yl)piperazin-1-yl]-4′-methylbiphenyl-2-yl}oxy)ethyl]pyrrolidine-2,5-dione]
– | – | < 100 | < 100 | CCc1n[nH]c2ncnc(N3CCN(c4cc(OCC(F)(CF)CF)cc(NCCN5CCCC5)c4C)CC3)c12 [Entry 256, 5-{[2,3-difluoro-2-(fluoromethyl)propyl]oxy}-3-[4-(3-ethyl-1H-pyrazolo[3,4-d]pyrimidin-4-yl)pipera-zin-1-yl]-2-methyl-N-(2-pyrrolidin-1-ylethyl)aniline]
